Reference: PubChem BioAssay (NCI)
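Following 48 hours of exposure in 96-well plates, responses at five concentrations were used to interpolate endpoints linearly. The concentration for full growth arrest is given as TGI.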

Columns and labels:
Assay in all cases: inhibition of tumour cell growth, NCI panel, 48 h
MDA-MB-435 = system: MDA-MB-435
OVCAR-4 ovarian = system: OVCAR-4 ovarian
HCT-116 colon = system: HCT-116 colon
SNB-75 CNS = system: SNB-75 CNS
HS 578T breast = system: HS 578T breast
CCRF-CEM leukemia = system: CCRF-CEM leukemia
SNB-19 CNS = system: SNB-19 CNS
K-562 leukemia = system: K-562 leukemia
A498 renal = system: A498 renal
UACC-257 melanoma = system: UACC-257 melanoma
SN12C renal = system: SN12C renal
RXF 393 renal = system: RXF 393 renal
HCC-2998 colon = system: HCC-2998 colon
HL-60(TB) leukemia = system: HL-60(TB) leukemia
MDA-MB-231 breast = system: MDA-MB-231 breast
OVCAR-8 ovarian = system: OVCAR-8 ovarian
IGROV1 ovarian = system: IGROV1 ovarian
SK-MEL-2 melanoma = system: SK-MEL-2 melanoma
OVCAR-3 ovarian = system: OVCAR-3 ovarian
NCI-H522 lung = system: NCI-H522 lung
MALME-3M melanoma = system: MALME-3M melanoma
LOX IMVI melanoma = system: LOX IMVI melanoma
SK-MEL-28 melanoma = system: SK-MEL-28 melanoma
NCI-H460 lung = system: NCI-H460 lung
NCI/ADR-RES ovarian = system: NCI/ADR-RES ovarian
NCI-H23 lung = system: NCI-H23 lung
KM12 colon = system: KM12 colon
UO-31 renal = system: UO-31 renal
SF-268 CNS = system: SF-268 CNS
COLO 205 colon = system: COLO 205 colon
OVCAR-5 ovarian = system: OVCAR-5 ovarian
CAKI-1 renal = system: CAKI-1 renal
MOLT-4 leukemia = system: MOLT-4 leukemia
NCI-H226 lung = system: NCI-H226 lung
BT-549 breast = system: BT-549 breast
A549 NSCLC = system: A549 NSCLC
SR leukemia = system: SR leukemia
SF-295 CNS = system: SF-295 CNS
DU-145 prostate = system: DU-145 prostate
HOP-62 NSCLC = system: HOP-62 NSCLC
MDA-N = system: MDA-N
M14 melanoma = system: M14 melanoma
TK-10 renal = system: TK-10 renal
MCF7 breast = system: MCF7 breast
SF-539 CNS = system: SF-539 CNS
T-47D breast = system: T-47D breast
HCT-15 colon = system: HCT-15 colon
SK-MEL-5 melanoma = system: SK-MEL-5 melanoma
ACHN renal = system: ACHN renal
PC-3 prostate = system: PC-3 prostate
U251 CNS = system: U251 CNS
HT29 colon = system: HT29 colon
SW-620 colon = system: SW-620 colon
UACC-62 melanoma = system: UACC-62 melanoma
RPMI-8226 leukemia = system: RPMI-8226 leukemia
786-0 renal = system: 786-0 renal
EKVX NSCLC = system: EKVX NSCLC
SK-OV-3 ovarian = system: SK-OV-3 ovarian
HOP-92 NSCLC = system: HOP-92 NSCLC

O=[N+]([O-])c1ccc(N=Nc2c(O)[nH]c3ccccc23)cc1
TGI (MDA-MB-435): > 100 µM
TGI (OVCAR-4 ovarian): 57.6 µM
TGI (HCT-116 colon): > 96.4 µM
TGI (SNB-75 CNS): 42.6 µM
TGI (HS 578T breast): 51.6 µM
TGI (CCRF-CEM leukemia): > 80.1 µM
TGI (SNB-19 CNS): > 100 µM
TGI (K-562 leukemia): > 84.6 µM
TGI (A498 renal): 39.5 µM
TGI (UACC-257 melanoma): > 60.1 µM
TGI (SN12C renal): > 100 µM
TGI (RXF 393 renal): 35.4 µM
TGI (HCC-2998 colon): > 100 µM
TGI (HL-60(TB) leukemia): > 77.8 µM
TGI (MDA-MB-231 breast): > 58.9 µM
TGI (OVCAR-8 ovarian): 48.3 µM
TGI (IGROV1 ovarian): 41.4 µM
TGI (SK-MEL-2 melanoma): > 100 µM
TGI (OVCAR-3 ovarian): 35.2 µM
TGI (NCI-H522 lung): 34.6 µM
TGI (MALME-3M melanoma): 45.2 µM
TGI (LOX IMVI melanoma): > 96.3 µM
TGI (SK-MEL-28 melanoma): > 100 µM
TGI (NCI-H460 lung): > 100 µM
TGI (NCI/ADR-RES ovarian): 48.5 µM
TGI (NCI-H23 lung): > 100 µM
TGI (KM12 colon): > 100 µM
TGI (UO-31 renal): 39.3 µM
TGI (SF-268 CNS): 58.7 µM
TGI (COLO 205 colon): > 100 µM
TGI (OVCAR-5 ovarian): > 63.1 µM
TGI (CAKI-1 renal): 40.4 µM
TGI (MOLT-4 leukemia): > 100 µM
TGI (NCI-H226 lung): 51.5 µM
TGI (BT-549 breast): 71.3 µM
TGI (A549 NSCLC): > 100 µM
TGI (SR leukemia): 45.9 µM
TGI (SF-295 CNS): 48.7 µM
TGI (DU-145 prostate): 36.4 µM
TGI (HOP-62 NSCLC): 34 µM
TGI (MDA-N): > 100 µM
TGI (M14 melanoma): > 100 µM
TGI (TK-10 renal): > 51.2 µM
TGI (MCF7 breast): > 100 µM
TGI (SF-539 CNS): 9.36 µM
TGI (T-47D breast): 35.8 µM
TGI (HCT-15 colon): > 100 µM
TGI (SK-MEL-5 melanoma): > 77.3 µM
TGI (ACHN renal): 26.3 µM
TGI (PC-3 prostate): > 100 µM
TGI (U251 CNS): > 100 µM
TGI (HT29 colon): > 100 µM
TGI (SW-620 colon): > 100 µM
TGI (UACC-62 melanoma): > 100 µM
TGI (RPMI-8226 leukemia): > 100 µM
TGI (786-0 renal): 61.7 µM
TGI (EKVX NSCLC): > 72.1 µM
TGI (SK-OV-3 ovarian): 65.3 µM

CC[C@@H]1CC[C@@H]2[C@H](CC[C@]3(C)[C@@H](OS(=O)(=O)c4ccc(C)cc4)CC[C@@H]23)[C@H]1CO
TGI (HOP-92 NSCLC): > 100 µM
TGI (MDA-MB-435): > 100 µM
TGI (OVCAR-4 ovarian): > 100 µM
TGI (HCT-116 colon): > 100 µM
TGI (SNB-75 CNS): > 100 µM
TGI (HS 578T breast): > 100 µM
TGI (CCRF-CEM leukemia): > 100 µM
TGI (SNB-19 CNS): > 100 µM
TGI (K-562 leukemia): > 100 µM
TGI (A498 renal): > 100 µM
TGI (UACC-257 melanoma): > 100 µM
TGI (SN12C renal): > 100 µM
TGI (RXF 393 renal): > 100 µM
TGI (HCC-2998 colon): > 100 µM
TGI (HL-60(TB) leukemia): > 100 µM
TGI (MDA-MB-231 breast): > 100 µM
TGI (OVCAR-8 ovarian): > 100 µM
TGI (IGROV1 ovarian): > 100 µM
TGI (OVCAR-3 ovarian): > 100 µM
TGI (NCI-H522 lung): > 100 µM
TGI (MALME-3M melanoma): > 100 µM
TGI (LOX IMVI melanoma): > 100 µM
TGI (SK-MEL-28 melanoma): > 100 µM
TGI (NCI-H460 lung): > 100 µM
TGI (NCI/ADR-RES ovarian): > 100 µM
TGI (NCI-H23 lung): > 100 µM
TGI (KM12 colon): > 100 µM
TGI (UO-31 renal): 52.5 µM
TGI (SF-268 CNS): > 100 µM
TGI (COLO 205 colon): > 100 µM
TGI (OVCAR-5 ovarian): > 100 µM
TGI (CAKI-1 renal): > 100 µM
TGI (MOLT-4 leukemia): > 100 µM
TGI (NCI-H226 lung): > 100 µM
TGI (BT-549 breast): > 100 µM
TGI (A549 NSCLC): > 100 µM
TGI (SR leukemia): > 100 µM
TGI (SF-295 CNS): > 100 µM
TGI (DU-145 prostate): > 100 µM
TGI (HOP-62 NSCLC): > 100 µM
TGI (MDA-N): > 100 µM
TGI (M14 melanoma): > 100 µM
TGI (TK-10 renal): > 100 µM
TGI (MCF7 breast): > 100 µM
TGI (SF-539 CNS): > 100 µM
TGI (T-47D breast): > 100 µM
TGI (HCT-15 colon): > 100 µM
TGI (SK-MEL-5 melanoma): > 100 µM
TGI (ACHN renal): > 100 µM
TGI (PC-3 prostate): > 100 µM
TGI (U251 CNS): > 100 µM
TGI (HT29 colon): > 100 µM
TGI (SW-620 colon): > 100 µM
TGI (RPMI-8226 leukemia): > 100 µM
TGI (786-0 renal): > 100 µM
TGI (EKVX NSCLC): > 100 µM
